In US12600726B2, “Antagonists of the muscarinic acetylcholine receptor M4” (Vanderbilt University, priority 2017, dated 2026):

Assays:
[1] = target: T1, Rat M4 (Rattus norvegicus, UniProt P08485); experiment: mAChR M4 cell-based functional calcium flux assay (rat M4/Gqi5/CHO cells); details: for Emin (rat M4): % ACh maximum at 30 μM
T1 construct: expressed in transfected cells; host or cells: CHO-K1 (ATCC), stably expressing M4 and Gqi5
T1 sequence (P08485 1-478): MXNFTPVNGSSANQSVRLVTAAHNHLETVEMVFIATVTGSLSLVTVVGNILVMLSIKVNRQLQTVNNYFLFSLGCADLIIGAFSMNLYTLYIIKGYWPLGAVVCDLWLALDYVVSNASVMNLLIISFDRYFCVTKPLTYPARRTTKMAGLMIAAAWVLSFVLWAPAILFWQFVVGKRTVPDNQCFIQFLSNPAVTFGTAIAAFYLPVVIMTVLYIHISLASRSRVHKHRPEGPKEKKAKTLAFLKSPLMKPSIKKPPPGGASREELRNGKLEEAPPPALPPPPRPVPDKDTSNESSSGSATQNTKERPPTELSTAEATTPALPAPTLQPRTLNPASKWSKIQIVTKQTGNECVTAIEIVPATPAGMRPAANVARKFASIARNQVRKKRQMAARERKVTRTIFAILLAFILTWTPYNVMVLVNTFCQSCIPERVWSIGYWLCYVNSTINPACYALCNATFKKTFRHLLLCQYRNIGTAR
Protocol: (§1) Human, rat, or mouse M4. cDNA, along with the chimeric G protein Gqi5, were transfected into Chinese hamster ovary (CHO-K1) cells purchased from the American Type Culture Collection using Lipofectamine2000. M4/Gqi5/CHO cells were grown in Ham's F-12 medium containing 10% heat-inactivated fetal bovine serum (FBS), 20 mM HEPES, 500 μg/mL G418 sulfate, and 200 μg/mL Hygromycin B.
(§2) For high throughput measurement of agonist-evoked increases in intracellular calcium, CHO-K1 cells stably expressing muscarinic receptors were plated in growth medium lacking G418 and hygromycin at 15,000 cells/20 μL/well in Greiner 384-well black-walled, tissue culture (TC)-treated, clear-bottom plates (VWR). Cells were incubated overnight at 37° C. and 5% CO2. The next day, cells were washed using an ELX 405 (BioTek) with assay buffer; the final volume was then aspirated to 20 μL. Next, 20 μL of a 2.3 μM stock of Fluo-4/acetoxymethyl ester (Invitrogen, Carlsbad, CA), prepared as a 2.3 mM stock in DMSO and mixed in a 1:1 ratio with 10% (w/v) Pluronic F-127 and diluted in assay buffer, was added to the wells and the cell plates were incubated for 50 min at 37° C. and 5% CO2. Dye was removed by washing with the ELX 405 and the final volume was aspirated to 20 μL. Compound master plates were formatted in a 10 point concentration-response curve (CRC) format (1:3 dilutions) in 100% DMSO with a starting concentration of 10 or 1 mM using a BRAVO liquid handler (Agilent). Test compound CRCs were then transferred to daughter plates (240 nL) using the Echo acoustic plate reformatter (Labcyte, Sunnyvale, CA) and then diluted into assay buffer (40 μL) to a 2× stock using a Thermo Fisher Combi (Thermo Fisher Scientific, Waltham, MA).
(§3) Calcium flux was measured using the Functional Drug Screening System (FDSS) 6000 or 7000 (Hamamatsu Corporation, Tokyo, Japan) as an increase in the fluorescent static ratio. Compounds were applied to cells (20 μL, 2×) using the automated system of the FDSS at 2 seconds into the protocol and the data were collected at 1 Hz. At 143 s, 10 μL of an EC20 concentration of the muscarinic receptor agonist acetylcholine was added (5×), followed by the addition of 12 μL of an EC80 concentration of acetylcholine at the 268 s time point (5×). Agonist activity was analyzed as a concentration-dependent increase in calcium mobilization upon compound addition. Positive allosteric modulator activity was analyzed as a concentration-dependent increase in the EC20 acetylcholine response. Antagonist activity was analyzed as a concentration-dependent decrease in the EC80 acetylcholine response; for the purposes of the tables herein, an IC50 (inhibitory concentration 50) was calculated as a concentration-dependent decrease of the response elicited by an EC80 concentration of acetylcholine. Concentration-response curves were generated using a four-parameter logistical equation in XLFit curve fitting software (IDBS, Bridgewater, NJ) for Excel (Microsoft, Redmond, WA) or Prism (GraphPad Software, Inc., San Diego, CA) or the Dotmatics software platform (Dotmatics, Bishop's Stortford, UK).
(§4) Compounds were synthesized as described above. Activity (IC50 and Emin) was determined in the mAChR M4 cell-based functional assay as described above and the data are shown in Table 2 and Table 3. The compound number corresponds to the compound numbers used in the examples and Tables 1 and 1.1.

[2] = target: T2, Human M4 (Homo sapiens, UniProt P08173); experiment: mAChR M4 cell-based functional calcium flux assay (human M4/Gqi5/CHO cells); details: for Emin (human M4): % ACh maximum at 30 μM; for IC50: decrease of the response to an EC80 concentration of acetylcholine
T2 construct: expressed in transfected cells; host or cells: CHO-K1 (ATCC), stably expressing M4 and Gqi5
T2 sequence (P08173 1-479): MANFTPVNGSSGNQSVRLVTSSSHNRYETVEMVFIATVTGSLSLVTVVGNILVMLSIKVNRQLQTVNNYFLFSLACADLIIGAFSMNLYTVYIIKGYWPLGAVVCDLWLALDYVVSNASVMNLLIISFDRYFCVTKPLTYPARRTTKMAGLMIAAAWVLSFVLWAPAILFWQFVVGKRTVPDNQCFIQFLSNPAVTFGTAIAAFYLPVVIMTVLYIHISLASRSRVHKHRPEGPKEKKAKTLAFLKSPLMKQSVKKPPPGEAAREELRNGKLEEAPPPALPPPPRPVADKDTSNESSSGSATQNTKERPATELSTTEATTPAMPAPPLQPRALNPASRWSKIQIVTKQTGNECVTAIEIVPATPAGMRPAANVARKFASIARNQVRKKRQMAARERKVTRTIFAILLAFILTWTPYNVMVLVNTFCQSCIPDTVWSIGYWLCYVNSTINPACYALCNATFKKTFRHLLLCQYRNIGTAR
Protocol: as §1, §2, §3, §4

[3] = decrease of the response to an EC80 concentration of acetylcholine
[4] = cells printed in μM, decrease of the EC80 acetylcholine response

SMILES	Emin (rat M4) [1]	IC50 [1, 3]	Emin (human M4) [2]	IC50 [2]	IC50 [1, 4]
CC(C)(C)CCN1CCC2(CC1)CC2CNc1ccc(-c2cc(F)cc(F)c2)nn1 (stereo not shown) [Compound 33, 6-(3,5-difluorophenyl)-N-[[6-(3,3-dimethylbutyl)-6-azaspiro[2.5]octan-2-yl]methyl]pyridazin-3-amine]	2.09%	0.11 µM	2.48%	40 nM	–
CC(C)(C)CCN1CCC2(CC1)CC2CNc1ccc(-c2ccccc2)nn1 (stereo not shown) [Compound 34, N-[[6-(3,3-dimethylbutyl)-6-azaspiro[2.5]octan-2-yl]methyl]-6-phenyl-pyridazin-3-amine]	2.88%	0.0862 µM	2.24%	17.8 nM	–
COc1ccc(F)cc1-c1ccc(NCC2CC23CCN(CCC(C)(C)C)CC3)nn1 (stereo not shown) [Compound 31, N-[[6-(3,3-dimethylbutyl)-6-azaspiro[2.5]octan-2-yl]methyl]-6-(5-fluoro-2-methoxy-phenyl)pyridazin-3-amine]	2.87%	0.0688 µM	3.03%	22.1 nM	–
CC(C)(C)CCN1CCC2(CC1)CC2CNc1ccc(-c2ccccc2F)nn1 (stereo not shown) [Compound 26, N-[[6-(3,3-dimethylbutyl)-6-azaspiro[2.5]octan-2-yl]methyl]-6-(2-fluorophenyl)pyridazin-3-amine]	3.40%	0.192 µM	2.98%	13.3 nM	–
CC(C)(C)CCN1CCC2(CC1)CC2CNc1ccc(-c2ccccc2OC(F)(F)F)nn1 (stereo not shown) [Compound 48, N-[[6-(3,3-dimethylbutyl)-6-azaspiro[2.5]octan-2-yl]methyl]-6-[2-(trifluoromethoxy)phenyl]pyridazin-3-amine]	2.26%	0.387 µM	2.63%	64.4 nM	–
CC(CN1CCC2(CC1)CC2C(=O)Nc1ccc(-c2cc(F)ccc2Cl)nn1)C(C)(C)C (stereo not shown) [Compound 19, N-[6-(2-chloro-5-fluoro-phenyl)pyridazin-3-yl]-6-(2,3,3-trimethylbutyl)-6-azaspiro[2.5]octane-2-carboxamide]	34.9%	–	6.57%	5060 nM	> 10 µM
CC(C)(C)CCN1CCC2(CC1)CC2CNc1ccc(-c2ccc(F)cc2F)nn1 (stereo not shown) [Compound 28, 6-(2,4-difluorophenyl)-N-[[6-(3,3-dimethylbutyl)-6-azaspiro[2.5]octan-2-yl]methyl]pyridazin-3-amine]	2.59%	0.261 µM	2.74%	55.7 nM	–
CC(C)(C)CCN1CCC2(CC1)CC2CNc1ccc(-c2cc(F)ccc2C#N)nn1 (stereo not shown) [Compound 43, 2-[6-[[[6-(3,3-dimethylbutyl)-6-azaspiro[2.5]octan-2-yl]methyl]amino]pyridazin-3-yl]-4-fluoro-benzonitrile]	3.33%	0.199 µM	2.34%	23 nM	–

The next lines start with the values.

Emin (rat M4) [1]	IC50 [1, 3]	Emin (human M4) [2]	IC50 [2]	IC50 [1, 4]	SMILES
12.3%	1.89 µM	3.93%	114 nM	–	Cc1nn(C)cc1-c1ccc(NCC2CC23CCN(CC2CCCOC2)CC3)nn1 (stereo not shown) [Compound 60, 6-(1,3-dimethylpyrazol-4-yl)-N-[[6-(tetrahydropyran-3-ylmethyl)-6-azaspiro[2.5]octan-2-yl]methyl]pyridazin-3-amine]
4%	0.35 µM	3%	170 nM	–	Cc1nn(C)cc1-c1nnc(NCC2CC23CCN(CC24CC5CC(CC(C5)C2)C4)CC3)c2ccccc12 (stereo not shown) [Compound 89, N-[[6-(1-adamantylmethyl)-6-azaspiro[2.5]octan-2-yl]methyl]-4-(1,3-dimethylpyrazol-4-yl)phthalazin-1-amine]
4%	0.0563 µM	4%	34.3 nM	–	CC(=O)Nc1ccc(-c2ccc(NC[C@H]3CC34CCN(CCC(C)(C)C)CC4)nn2)cc1 [Compound 124, N-[4-[6-[[(2S)-6-(3,3-dimethylbutyl)-6-azaspiro[2.5]octan-2-yl]methylamino]pyridazin-3-yl]phenyl]acetamide]
9%	0.0437 µM	3%	68.2 nM	–	CC(=O)Nc1ccc(-c2ccc(NC[C@@H]3CC34CCN(CC3CCOCC3)CC4)nn2)cc1 [Compound 121, N-[4-[6-[[(2R)-6-(tetrahydropyran-4-ylmethyl)-6-azaspiro[2.5]octan-2-yl]methylamino]pyridazin-3-yl]phenyl]acetamide]
3.68%	0.0332 µM	2.90%	11 nM	–	CC(C)(C)CCN1CCC2(CC1)C[C@H]2CNc1ccc(-c2cc(F)ccc2Cl)nn1 [Compound 64, (R)-6-(2-chloro-5-fluoro-phenyl)-N-[[6-(3,3-dimethylbutyl)-6-azaspiro[2.5]octan-2-yl]methyl]pyridazin-3-amine]
19.9%	–	4.53%	537 nM	> 10 µM	Cc1nn(C)cc1-c1ccc(NCC2CC23CCN(Cc2ncccc2C(F)(F)F)CC3)nn1 (stereo not shown) [Compound 63, 6-(1,3-dimethylpyrazol-4-yl)-N-[[6-[[3-(trifluoromethyl)-2-pyridyl]methyl]-6-azaspiro[2.5]octan-2-yl]methyl]pyridazin-3-amine]
2.44%	0.0943 µM	2.64%	12.8 nM	–	CC(C)(C)CCN1CCC2(CC1)CC2CNc1ccc(-c2cnccc2C(F)(F)F)nn1 (stereo not shown) [Compound 49, N-[[6-(3,3-dimethylbutyl)-6-azaspiro[2.5]octan-2-yl]methyl]-6-[4-(trifluoromethyl)-3-pyridyl]pyridazin-3-amine]
4%	0.00753 µM	6%	2.04 nM	–	CC(=O)Nc1ccc(-c2ccc(NC[C@@H]3CC34CCN(CCC(C)(C)C)CC4)nn2)cc1 [Compound 111, N-[4-[6-[[(2R)-6-(3,3-dimethylbutyl)-6-azaspiro[2.5]octan-2-yl]methylamino]pyridazin-3-yl]phenyl]acetamide]
